According to ChEMBL document CHEMBL1123334, “4-Amino-6-chloro-2-piperazinopyrimidines with selective affinity for alpha 2-adrenoceptors” (J Med Chem, 1986):

What was measured:
[1] = target: T1, Adrenergic receptor alpha-1 (Rattus norvegicus, UniProt P15823+P23944+P43140); test: In vitro binding affinity was measured as the inhibition of [3H]WB-4101 binding to alpha-1 adrenergic receptor of rat cortical membranes; assay type: cell membranes, Membrane
T1 sequence (P15823 whole entry): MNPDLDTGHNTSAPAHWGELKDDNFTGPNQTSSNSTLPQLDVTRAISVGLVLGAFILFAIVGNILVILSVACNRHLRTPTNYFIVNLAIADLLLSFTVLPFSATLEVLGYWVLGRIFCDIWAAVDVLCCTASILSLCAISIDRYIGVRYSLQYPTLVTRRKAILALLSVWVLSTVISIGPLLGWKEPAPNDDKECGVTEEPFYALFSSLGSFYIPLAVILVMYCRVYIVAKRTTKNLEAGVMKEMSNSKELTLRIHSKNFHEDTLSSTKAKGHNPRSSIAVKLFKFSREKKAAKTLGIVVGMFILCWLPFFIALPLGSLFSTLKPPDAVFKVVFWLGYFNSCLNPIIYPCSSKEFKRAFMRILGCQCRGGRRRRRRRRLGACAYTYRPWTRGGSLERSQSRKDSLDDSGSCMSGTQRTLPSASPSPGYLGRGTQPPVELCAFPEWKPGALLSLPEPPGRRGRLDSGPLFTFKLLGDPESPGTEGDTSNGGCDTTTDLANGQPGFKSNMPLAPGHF
T1 sequence (P23944 whole entry): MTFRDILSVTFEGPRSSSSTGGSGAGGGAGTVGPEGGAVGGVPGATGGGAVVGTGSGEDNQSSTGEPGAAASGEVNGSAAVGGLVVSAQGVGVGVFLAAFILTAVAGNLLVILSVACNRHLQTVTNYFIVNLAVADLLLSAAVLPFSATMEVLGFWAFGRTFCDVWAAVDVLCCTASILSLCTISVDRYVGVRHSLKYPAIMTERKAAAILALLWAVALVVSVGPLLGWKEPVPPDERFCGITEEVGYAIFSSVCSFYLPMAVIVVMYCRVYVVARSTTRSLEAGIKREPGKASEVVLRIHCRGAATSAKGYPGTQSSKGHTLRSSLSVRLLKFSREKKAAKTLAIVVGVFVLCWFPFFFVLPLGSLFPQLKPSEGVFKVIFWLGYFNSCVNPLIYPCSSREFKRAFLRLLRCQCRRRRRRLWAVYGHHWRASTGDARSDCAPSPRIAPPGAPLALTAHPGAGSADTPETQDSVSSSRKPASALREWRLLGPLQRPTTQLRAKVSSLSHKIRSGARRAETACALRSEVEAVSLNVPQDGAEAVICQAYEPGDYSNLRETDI
T1 sequence (P43140 whole entry): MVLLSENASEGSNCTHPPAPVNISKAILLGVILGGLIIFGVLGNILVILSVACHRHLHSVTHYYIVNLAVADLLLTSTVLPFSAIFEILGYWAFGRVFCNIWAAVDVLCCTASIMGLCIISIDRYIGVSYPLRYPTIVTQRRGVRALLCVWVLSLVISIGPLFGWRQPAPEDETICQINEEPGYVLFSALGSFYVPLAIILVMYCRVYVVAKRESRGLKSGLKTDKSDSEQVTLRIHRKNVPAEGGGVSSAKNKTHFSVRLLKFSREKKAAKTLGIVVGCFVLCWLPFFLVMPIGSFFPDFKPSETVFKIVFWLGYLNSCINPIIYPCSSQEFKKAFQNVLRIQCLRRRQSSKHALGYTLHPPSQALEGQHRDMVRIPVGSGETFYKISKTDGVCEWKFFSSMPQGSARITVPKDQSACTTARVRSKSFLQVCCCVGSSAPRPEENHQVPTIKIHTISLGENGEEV

[2] = target: T2, Adrenergic receptor alpha-2 (Rattus norvegicus, UniProt P22086+P19328+P22909)
T2 sequence (P22086 whole entry): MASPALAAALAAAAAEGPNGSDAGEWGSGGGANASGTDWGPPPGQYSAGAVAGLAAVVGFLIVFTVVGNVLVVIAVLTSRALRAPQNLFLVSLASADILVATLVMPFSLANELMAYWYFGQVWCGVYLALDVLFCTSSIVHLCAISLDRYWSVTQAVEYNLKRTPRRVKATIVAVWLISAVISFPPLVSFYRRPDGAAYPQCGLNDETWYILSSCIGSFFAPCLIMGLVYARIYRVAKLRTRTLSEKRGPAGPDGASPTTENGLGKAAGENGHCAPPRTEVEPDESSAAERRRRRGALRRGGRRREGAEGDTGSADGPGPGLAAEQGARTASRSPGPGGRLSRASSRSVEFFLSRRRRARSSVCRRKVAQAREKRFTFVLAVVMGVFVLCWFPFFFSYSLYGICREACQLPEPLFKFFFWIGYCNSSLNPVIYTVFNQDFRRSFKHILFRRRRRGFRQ
T2 sequence (P19328 whole entry): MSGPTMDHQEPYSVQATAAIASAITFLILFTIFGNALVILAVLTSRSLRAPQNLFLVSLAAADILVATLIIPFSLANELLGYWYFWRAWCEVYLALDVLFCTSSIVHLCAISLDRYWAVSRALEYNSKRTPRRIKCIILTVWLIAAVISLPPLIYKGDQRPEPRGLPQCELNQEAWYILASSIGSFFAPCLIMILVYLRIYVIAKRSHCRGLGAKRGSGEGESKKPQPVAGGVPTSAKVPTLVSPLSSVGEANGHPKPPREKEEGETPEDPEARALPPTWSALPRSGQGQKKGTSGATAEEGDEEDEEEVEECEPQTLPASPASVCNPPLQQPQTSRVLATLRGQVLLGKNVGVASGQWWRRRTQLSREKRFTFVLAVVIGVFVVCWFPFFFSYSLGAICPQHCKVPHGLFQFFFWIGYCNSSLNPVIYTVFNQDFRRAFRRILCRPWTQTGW
T2 sequence (P22909 whole entry): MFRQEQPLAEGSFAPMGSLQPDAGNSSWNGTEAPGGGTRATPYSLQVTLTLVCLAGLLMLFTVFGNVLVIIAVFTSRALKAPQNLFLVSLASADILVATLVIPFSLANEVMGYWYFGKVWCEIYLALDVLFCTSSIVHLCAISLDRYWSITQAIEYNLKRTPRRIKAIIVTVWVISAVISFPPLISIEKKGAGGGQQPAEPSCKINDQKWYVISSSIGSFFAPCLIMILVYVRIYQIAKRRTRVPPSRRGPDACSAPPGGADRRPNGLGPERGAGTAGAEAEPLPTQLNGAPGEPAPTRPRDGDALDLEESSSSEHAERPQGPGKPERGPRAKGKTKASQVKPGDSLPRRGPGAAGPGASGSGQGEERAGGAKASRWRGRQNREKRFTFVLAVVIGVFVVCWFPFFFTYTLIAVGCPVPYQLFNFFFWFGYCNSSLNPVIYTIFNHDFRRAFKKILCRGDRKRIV

[3] = target: T2, Adrenergic receptor alpha-2; test: Inhibition of [3H]idazoxan binding to alpha-2 adrenergic receptor of rat cortical membranes; assay type: cell membranes, Membrane
Dopamine receptor = test: In vitro binding affinity to Dopamine receptors of rat striatal membranes by [3H]spiroperidol displacement.
[4] = target: T2, Adrenergic receptor alpha-2; test: In vitro binding affinity was measured as the inhibition of [3H]idazoxan to alpha-2 adrenergic receptors of rat cortical membranes; assay type: cell membranes, Membrane

| Structure (SMILES) | Ki [1] [nM] | Ki [2] [nM] | Ki [3] [nM] | Ki (Dopamine receptor) [nM] | Ki [4] [nM] |
| --- | --- | --- | --- | --- | --- |
| CNc1nc(N2CCN(C)CC2)nc(Cl)c1SC | 1800 | 360 |  |  |  |
| CCNc1nc(N2CCN(C)CC2)nc(Cl)c1SC | 1800 | 90 |  |  |  |
| CSc1c(Cl)nc(N2CCNCC2)nc1NC(C)C | 500 | 36 | 62 | 3000 |  |
| COc1c(Cl)nc(N2CCN(C)CC2)nc1NC1CCCC1 | 1700 | 50 | 29 | 670 |  |
| CSc1c(Cl)nc(N2CCN(C)CC2)nc1NC1CCCC1 | 76 | 22 |  | 1200 |  |
| CC(C)Nc1cc(Cl)nc(N2CCN(C)CC2)n1 | > 180 | 130 |  |  | 200 |
| CSc1c(Cl)nc(N2CCN(C)CC2)nc1NC(C)(C)C | 450 | 180 |  | 920 |  |
| CNc1nc(N2CCN(C)CC2)nc(Cl)c1OC | 1700 | 150 |  |  |  |
| CSc1c(N)nc(N2CCN(C)CC2)nc1Cl | 820 | 620 |  | 1000 |  |
| CNc1nc(N2CCN(C)CC2)nc(Cl)c1Br | 180 | 150 |  | 200 |  |
| CSc1c(Cl)nc(N2CCN(C)CC2)nc1NCc1ccccc1 | 100 | 1500 |  | 14 |  |
| Cc1c(Cl)nc(N2CCNCC2)nc1NC(C)C | 860 | 6 | 13 | 2900 |  |
| CC(C)Nc1nc(N2CCN(C)CC2)nc(Cl)c1Cl | 42 | 5 |  | 2400 | 14 |
| CSc1c(Cl)nc(N2CCN(C)CC2)nc1NC1CCCCC1 | 240 | 290 |  |  |  |
| CC(C)Nc1nc(N2CCNCC2)nc(Cl)c1Br | 200 | 16 | 28 | 880 |  |
| COc1c(Cl)nc(N2CCN(C)CC2)nc1NC(C)C | 310 | 50 |  |  |  |

| Structure (SMILES) | Ki [1] [nM] | Ki [2] [nM] | Ki [3] [nM] | Ki (Dopamine receptor) [nM] | Ki [4] [nM] |
| --- | --- | --- | --- | --- | --- |
| CN1CCN(c2nc(N)c(Cl)c(Cl)n2)CC1 | 67 | 50 |  |  |  |
| CN1CCN(c2nc(Cl)c(Cl)c(NC3CCCC3)n2)CC1 | 240 | 120 |  |  | 97 |
| CNc1nc(N2CCN(C)CC2)nc(Cl)c1Cl | 4 | 44 |  | 1200 |  |
| CC(C)Nc1nc(N2CCN(C)CC2)nc(Cl)c1Br | 290 | 7 |  | 480 |  |
| Cc1c(Cl)nc(N2CCN(C)CC2)nc1NC(C)C | 200 | 16 |  | 880 |  |
| CN1CCN(c2nc(N)c(Br)c(Cl)n2)CC1 | 820 | 1600 |  | 10000 |  |
| CN1CCN(c2nc(Cl)c(Br)c(NC3CCCC3)n2)CC1 | 250 | 140 | 230 |  |  |
| CSc1c(Cl)nc(N2CCN(C)CC2)nc1NCCc1ccccc1 | 180 | 910 |  | 1400 |  |
| CSc1c(Cl)nc(N2CCN(C)CC2)nc1Nc1ccccc1 | 140 | 240 | 500 |  |  |
| CNc1cc(Cl)nc(N2CCN(C)CC2)n1 | 280 | 50 | 100 | 630 |  |
| CSc1c(Cl)nc(N2CCN(C)CC2)nc1NC(C)C | 360 | 26 |  | 640 |  |
| Clc1cccc(Cl)c1NC1=NCCN1 [CLONIDINE] |  |  |  | > 4000 |  |
| CNc1nc(Cl)c(SC)c(N2CCN(C)CC2)n1 [MEZILAMINE] | 91 | 9 | 12 |  |  |
| CC(COc1ccccc1)N(CCCl)Cc1ccccc1 (stereo not drawn) [PHENOXYBENZAMINE] | 1.8 |  |  | 120 |  |
| COC(=O)[C@@H]1[C@H]2C[C@H]3c4[nH]c5ccccc5c4CCN3C[C@@H]2CC[C@@H]1O [YOHIMBINE] |  |  |  | 2000 |  |
